From patent publication US20030229134A1, “Methods for stimulating nervous system regeneration and repair by inhibiting phosphodiesterase type 4” (priority 2000, published 2003)

Legend:
rat model of arthritis = details: higher concentrations (5-10 and 20 umol/kg), rats; cited from earlier work
[1] = test system: rats with moderate spinal cord contusion; experiment: Moderate contusive injury to the spinal cord; BBB test of hindlimb locomotion; type: in vivo, rat
From the text: (§1) A “BBB Score” is the result of a test developed by Basso, Beattie and Bresnahan as a modifed 21-point open field locomoter scale on which to measure the extent of recovery of motor function in rats with after spinal cord injury. See, e.g, Basso et al., J. Neurotrauma 13(7):343-59 (1996); Beattie et al. (1997), herein incorporated by reference.
Adult rat spinal cord were exposed and injured with a weight drop device (NYU). See Beattie et al. (1997) and Basso et al. (1996). At the same time as the injury was inflicted, rolipram was delivered subcutaneously via minipumps at 0.07 nmol/kg/hour for 2 weeks. One week after injury, Schwann cells, which had been grown and purified in culture, were injected into the lesion site along with 4 injections, each of 0.2 ul, of 1 mM dbcAMP. As a negative control, animals were injected with Schwann cells alone. Other animals were administered dbcAMP and Schwann cells. One group of animals was administered four injections, each of 0.2 ul, of 1 mM dbcAMP one week after injury. Another group was administered four injections, each of 0.2 ul, of 50 mM dbcAMP one week after injury. Another group was administered four injections, each of 0.2 ul, of 50 mM dbcAMP one day after injury. Animals were assessed on a weekly basis for hindlimb locomotion using the BBB test.

[2] = test system: cerebellar neurons on purified, immobilized myelin; experiment: Priming of cerebellar neurons with rolipram; neurite outgrowth on purified, immobilized myelin; type: cell-based, rat; details: priming with rolipram 0.25 uM, FIG. 2B
Method: (§2) Isolated cerebellar neurons in SATO media (prepared as in Example 1) were plated onto poly-L-lysine-coated dishes at 1×10^6 cells/dish. Where indicated, either BDNF at a concentration of 200 ng/ml, or rolipram at a concentration 0.1 uM or 0.25 uM (all from Sigma) was added. After culture for 18 hours (termed priming), neurons were removed with 0.1% trypsin. Trypsinization was stopped by adding 5 ml of DMEM containing 10% FCS. The primed neurons were centrifuged at 800 rpm for 6 min and resuspended in SATO media. The concentration of cells were adjusted to 6×10^4 cells/ml. […] Myelin was prepared as described previously (Cai et al., 1999) from rat CNS white matter. Neurons were cultured overnight before being fixed and immunostained for GAP43 to visualize the neurites. The length of the longest neurite per neuron, from 180-200 neurons, was measured. Results are presented as the average length+/−SEM in micrometers (um). (See, e.g., U.S. Pat. Nos. 5,932,542 and 6,203,792).

[3] = test system: cerebellar neurons and DRG neurons on MAG-expressing CHO cells; experiment: Subcutaneous rolipram injections into P12 rats; neurite outgrowth of isolated neurons on MAG-expressing CHO cells; type: in vivo, rat
Method: (§3) In order to determine whether a PDE4 specific inhibitor could be used to prime neurons in vivo and prevent inhibition of neurite outgrowth by myelin and MAG, rolipram was injected subcutaneously into P12 and P30 rats every 3 hours for 24 hours. For all experiments, rolipram was dissolved in DMSO and sterile saline was added to adjust the concentrations. The final volume of the rolipram solution was 0.2 ml for each injection. At each time point, a single rolipram injection was given. Rolipram was injected subcutaneously with insulin syringes (Becton Dickinson 1 ccU-100 insulin Syringe) under the skin of the rat's neck (for all experiments) and in various other regions (only for first experiment using P12 rats). Control animals were injected with a 0.2 ml mixture of DMSO and sterile saline without rolipram, following the same schedule.
Rolipram was injected subcutaneously into P12 rats at concentrations of 0, 7.5, 20, 25 or 40 nmol/kg every 3 hours for 24 hours before sacrificing. […] Cerebellar neurons were isolated as described in Example 1. Dorsal root ganglia (DRG) neurons were isolated as described previously (De Bellard et al., 1996). Briefly, ganglia were removed from the animals and incubated in 5 ml of SATO media containing 0.025% of trypsin and 0.15% of collagenase type I (Worthington) for 1 hour at 37° C. The ganglia were triturated and trypsinization was stopped by adding 5 ml of DMEM containing 10% FCS. Ganglia were centrifuged at 800 rpm for 6 min, and resuspended in SATO. Neurons were cultured overnight on CHO monolayers as described in Example 1 before being fixed and immunostained for GAP43 to visualize the neurites, as described in Example 1. As a positive control, some neurons from control animals were also cultured overnight in the presence of 1 mM dbcAMP. The length of the longest neurite per neuron, from 180-200 neurons, was measured and results are the average length+/−SEM. Results are expressed as a percentage of growth of the neurons isolated from control animals, treated with saline/DMSO injections and plated on control CHO cells, without dbcAMP or rolipram treatment.

[4] = test system: cerebellar neurons on MAG-expressing Chinese hamster ovary (CHO) cells; experiment: Direct treatment of cerebellar neurons with rolipram; neurite outgrowth on MAG-expressing CHO cells; type: cell-based, rat
Method: Cerebellar neurons from P5 rats were isolated as described previously (Cai et al., 1999) Briefly, cerebellum was treated with 0.025% of trypsin, triturated and incubated for 10 min at 37° C. Trypsinization was stopped by adding an equal amount of DMEM containing 10% fetal calf serum (FCS). Cells were centrifuged at 800 rpm for 5 min. The cells were resuspended to a single-cell suspension in 2 ml of SATO (see Cai et al., 1999, herein incorporated by reference). The concentration of cells were adjusted to 6×10^4 cells/ml. […] Where indicated, dbcAMP (1 mM) or rolipram (0.1 uM, 0.25 uM, 0.5 uM or 1.0 uM) was added to the media. After 18 hours of culture, neurons were fixed and immunostained with a rabbit polyclonal antibody against […] (GAP43) to visualize the neurites. The length of the longest neurite of the first two hundred GAP43-positive neurons was determined using the Simple 32™ software (see Cai et al., 1999). The mean length of a neurite was determined and presented as the average length+/−SEM in micrometers (um). Results are expressed as a percentage of neurite length from neurons grown in the absence of dbcAMP or rolipram.

mice = details: cited from earlier work
hippocampal slices = details: cited from earlier work
[5] = test system: rats with complete spinal cord transection; experiment: Complete transection of the spinal cord with Schwann cell bridge; BBB test of hindlimb locomotion; type: in vivo, rat
From the text: as §1
Adult rat spinal cords were completely transected at the T8 cord level and the next caudal segment was removed (Xu et al. (1997), herein incorporated by reference). Schwann cells were purified in culture from adult rat sciatic nerve, suspended in Matrigel: DMEM (30:70), and drawn into 8 mm long polymeric guidance channels at a density of 120×10^6 cells/ml. Xu et al. (1997). Each cut stump was inserted 1 mm into the channel. At the time of transection, a Schwann cell bridge was implanted at the injury site and rolipram was delivered subcutaneously via minipump at 0.07 umol/kg/hour for two weeks as described in Example 3B. As a negative control, animals were delivered saline only. As a positive control, 5 ul of 10 mM dbcAMP was infused in the proximal and distal stump of the lesion in animals. Animals were assessed on a weekly basis for hindlimb locomotion, which is a measure of their motor recovery, using the BBB test.

[6] = test system: cerebellar neurons on MAG-expressing CHO cells; experiment: Priming of cerebellar neurons with rolipram; neurite outgrowth on MAG-expressing CHO cells; type: cell-based, rat; details: BDNF 200 ng/ml
Method: as §2

[7] = test system: DRG neurons on MAG-expressing CHO cells; experiment: Subcutaneous rolipram injections into P30 rats; neurite outgrowth of isolated DRG neurons on MAG-expressing CHO cells; type: in vivo, rat
Method: as §3
In a second series of experiments, we injected increasing concentrations of rolipram subcutaneously into older animals (postnatal day 30; P30) every 3 hours for 24 hours and, as above, studied neurite outgrowth of isolated DRG neurons in the presence or absence of MAG.
(§4) DRG neurons were isolated from control and treated P30 animals and plated onto a monolayer of MAG-expressing CHO cells or a monolayer of control CHO cells. Neurons were cultured overnight before being fixed and immunostained for GAP43 to visualize the neurites, as described in Example 1. The length of the longest neurite per neuron from 180-200 neurons was measured. Results are expressed as a percentage of growth of the neurons isolated from control animals and are shown as the average length+/−SEM presented as a percentage of growth on control cells.
We next determined whether the effects of rolipram were time dependent. Rolipram (0.5 umol/kg) was administered by repeated subcutaneous injections to P30 rats for increasing amounts of time. DRG neurons were isolated from control and treated animals and plated onto a monolayer of MAG-expressing CHO cells or a monolayer of control CHO cells. Neurons were cultured overnight before being fixed and immunostained for GAP43 to visualize the neurites. The lengths of the longest neurite per neuron from 180-200 neurons were measured. Results are expressed as a percentage of growth of the neurons isolated from control animals and are shown as the average length+/−SEM presented as percentage of growth on control cells.

rats = details: cited from earlier work
[8] = test system: DRG neurons on MAG-expressing CHO cells; experiment: Continuous subcutaneous rolipram delivery by minipumps to P30 rats; neurite outgrowth of isolated DRG neurons on MAG-expressing CHO cells; type: in vivo, rat; details: for axonal outgrowth in the presence of MAG and on control CHO cells: minipump 0.4 umol/kg/hour
Method: Rolipram was delivered subcutaneously with ALZET 2001 minipumps. Minipumps were inserted subcutaneously under the skin of the animals' backs. Two minipumps were used for each animal; the combined flow rate was 2 ul/hour. Rolipram was dissolved in DMSO and sterile saline was added to adjust the doses of rolipram that were released from minipumps every hour. After 24 hours of treatment, DRG neurons were isolated from control and treated animals and plated onto a monolayer of MAG-expressing CHO cells or a monolayer of control CHO cells. Neurons were cultured overnight before being fixed and immunostained for GAP43 to visualize the neurites. The length of the longest neurite per neuron from 180-200 neurons was measured. Results are expressed as a percentage of growth of the neurons isolated from control animals and are shown as the average length+/−SEM presented as percentage of growth on control cells.
as §4, with “In order to determine whether longer continuous treatment with a PDE4 inhibitor would increase the relief of inhibition of neurite outgrowth by myelin or MAG, rolipram was administered subcutaneously by minipump (0.4 umol/kg/hour). After 1, 2 or 3 days of continuous rolipram treatment, DRG” for “DRG”, “treated” for “treated P30”, “neurites.” for “neurites, as described in Example 1.”, “length+/−SEM,” for “length+/−SEM”

[9] = test system: animal model for multiple sclerosis; details: cited from earlier work

For COc1ccc(C2CNC(=O)C2)cc1OC1CCCC1 (stereo not shown) [rolipram], the side effects (rat model of arthritis) is given as “No side effects”, the “motor skill recovery as measured by the BBB score” value ([1]; adult rats, minipump s.c. 0.07 nmol/kg/hour for 2 weeks plus Schwann cells and 4 injections of 1 mM dbcAMP one week after injury, from 2 up to 7 weeks after injury) is given as “significantly improved” and the BBB score achieved ([1]; continuous rolipram plus Schwann cells and dbcAMP, greater than 15 is scored as complete recovery) is given as “greater than 15”. The “inhibition of axonal growth by myelin after priming” value [2] was “overcomes inhibition”, the “subsequent inhibition of neuronal growth by MAG” value ([3]; P12 rats, 7.5 nmol/kg s.c. every 3 hours for 24 hours) was “effectively blocks” and the “inhibition of neuronal growth by MAG” value ([3]; P12 rats, 25 nmol/kg s.c. every 3 hours for 24 hours) was “essentially completely blocked”. The “most effective subcutaneous dose for relieving MAG inhibition” value ([3]; P12 rats, s.c. every 3 hours for 24 hours) was 20 nmol/kg, the “neurite length on control CHO cells” value ([3]; P12 rats, s.c. injections for 24 hours, control cells not expressing MAG) was “did not affect neurite length” and the “crossing of the blood brain barrier” value ([3]; inferred from effect on cerebellar (CNS) and DRG neurons after s.c. administration) was “crossed the blood brain barrier”. For the same molecule, the “inhibition of axonal outgrowth by MAG” value ([4]; rolipram 0.25 uM-1.0 uM in media, 18 hours culture, P5 rat cerebellar neurons, FIG. 1) was “partially blocks”, the “efficiency of blocking the inhibition of axonal outgrowth by MAG compared to dibutyryl-cAMP” value ([4]; rolipram 0.5 uM, comparator dbcAMP 1 mM) was 80% and the “dose dependence of the effect on MAG inhibition of axonal outgrowth” value ([4]; rolipram 0.1-1.0 uM) was “dose-dependent”. For the same molecule, the memory improving effects (mice; 3.0 umol/kg) was “did not have memory improving effects”, the side effects (mice; 0.1-3.0 umol/kg) was “No side effects” and the “performance in a hippocampus-dependent memory task” value (mice; mice, 0.1 umol/kg s.c.) was “improved the performance”. For the same molecule, the “basal cAMP levels” value (hippocampal slices; 1.0-3.0 umol/kg) was “Increased basal cAMP levels”, the “basal cAMP levels in hippocampal slices” value (hippocampal slices; up to 0.3 umol/kg) was “did not raise basal cAMP levels” and the “BBB score (motor recovery)” value ([5]; adult rats, complete transection at T8, Schwann cell bridge, minipump s.c. 0.07 umol/kg/hour for two weeks, vs saline) was “significantly increases”. For the same molecule, the “BBB score compared with administration of dbcAMP” value ([5]; rolipram 0.07 umol/kg/hour s.c., dbcAMP 5 ul of 10 mM infused in the stumps) was “essentially the same result”, the “blocking inhibition of axonal outgrowth by MAG after priming, compared with BDNF priming” value ([6]; priming 18 hours with rolipram 0.25 uM, FIG. 2) was “almost as effective as priming cerebellar neurons with BDNF” and the “length of neurites on monolayer of CHO cells expressing MAG, as % of length of neurons treated with BDNF” value ([6]; priming with rolipram 0.25 uM) was 95%. The “length of the neurites, 1, 2 and 3 days of treatment compared” value ([7]; 0.5 umol/kg intermittent s.c. injections every three hours) was “no significant difference”, the “length of the axons of DRG neurons, 24 hours treatment in comparison to 6 hours” value ([7]; 0.5 umol/kg repeated s.c. injections, FIG. 5) was “increased” and the “inhibition of axonal outgrowth by MAG” value ([7]; 0.1-2.0 umol/kg s.c. every 3 hours for 24 hours, FIG. 4) was “blocked (i.e., relieved) by rolipram in a dose-dependent manner”. For the same molecule, the “most effective subcutaneous dose for relieving MAG inhibition” value ([7]; s.c. every 3 hours for 24 hours) was 0.5 µmol/kg, the “concentrations at which sedative effects were demonstrated” value (rats) was 5 to 10 µmol/kg and the “axonal outgrowth in the presence of MAG and on control CHO cells” value ([8]; 2 days) was “significantly promoted”. The “axonal outgrowth in the presence of MAG and on control CHO cells” value ([8]; 3 days) was “even further promoted”, the “optimal continuous dose for subsequent neuronal growth and regeneration” value ([8]; s.c. minipump, 0.4, 0.5, 0.7 umol/kg/hour tested) was 0.4 µmol/kg/h and the “inhibition of DRG neurons by MAG after 24 hours of continuous treatment” value ([8]; s.c. minipump, 24 hours) was “no longer inhibited by MAG”. For the same molecule, the anti-inflammatory effect [9] was “demonstrated”.
